Series [1] has as its system methyl bromide-degrading bacteria. Nature of the series: Methyl bromide removal in the biotrickling filter. The text has this: A biotrickling filter was constructed as schematically represented in FIG. 2. The apparatus included three packed bed sections filled with lava rock, perlite or polyurethane as packing materials. Other equipment included an air supply, a methyl bromide supply, recycle liquid circulation, a nutrient supply (as a complete mineral medium), and a pH control by automatic addition of NaOH. The biotrickling filter was usually operated at standard conditions as specified in Table 1.
Cultures of methyl bromide-degrading bacteria were obtained by inoculating or exposing the substrate component of the apparatus with a variety of natural sources or materials, such as soil and sediment. A continuous supply of a low concentration (about 0 to about 10 g/m^3) of methyl bromide was supplied to the apparatus. The first signs of methyl bromide removal were observed after about 6-12 days of operation of the apparatus. The methyl bromide elimination capacity seemed to reach a maximum value after about 35-40 days of operation. During operation, the pH in the recycle liquid declined, small amounts of bromide were produced in the recycle liquid, and the CO2 concentration in the outlet air increased.
The fate of methyl bromide in the biotrickling filter was determined by comparing the rate of methyl bromide removal with the rates of CO2 production, bromide ion production and NaOH consumption as expected from the biodegradation reaction stoichiometry. Biodegradation of methyl bromide and pH control occur according to the following reactions 2CH3Br+3O2→2HBr+2 CO2+2H2O Equation 3 HBr+NaOH→NaBr+H2O Equation 4
The effect of the liquid recycle or trickling rate was examined at the lower and higher end of the range of recycle rates commonly employed in biotrickling filters. Methyl bromide removal was the same at a trickling rates of 2.55 and 22.2 L/h, corresponding to superficial liquid velocities of 2.0 and 17.7 m/h, respectively (Table 2).
The maximum elimination capacity of methyl bromide in the biotrickling filter was determined by stepwise increasing the methyl bromide concentration. Depending on the inlet concentration, the following phases can be distinguished: […]

Series [2] is described as follows: Air/organic phase partition coefficient of methyl bromide. The note with it: gas over liquid concentration. It is filed as physicochemical. How it is done: If necessary, the air/organic phase partition coefficients of methyl bromide in these and other potential organic liquids may be determined by adding a known amount of an organic liquid and methyl bromide to a 250 mL flask with TEFLON-lined silicon septa. A gas headspace may be analyzed for methyl bromide by gas chromatography, and the partition of methyl bromide may be calculated. In certain embodiments, corn oil may be preferred since the air/corn oil partition coefficient for methyl bromide is 0.02, i.e., about ten times lower than with water. Based on calculations, a Henry coefficient of 0.005 may be ideal for load dampening. The organic phase should meet various requirements, such as a low vapor pressure, low toxicity, non-miscibility with water, and being non-biodegradable. Additional examples of liquids may include di-n-octylphtalate, di-n-nonylphtalate, polydimethylsiloxane, and silicone oil. Methyl bromide concentrations in the inlet and outlet air may be determined (continuously or semi-continuously) with a photoionization detector (PID) analyzer, for example. […] Potential carry over of aerosol to the outlet stream may be determined to evaluate whether a demister might be beneficial. For either the GAC or liquid absorption system, the results may be analyzed with mathematical model (see FIG. 19).

For `CBr` [Methyl bromide], the Removal efficiency in series [1] (gas flow cocurrent, EBRT = 94 s, inlet 3.042 g/m^3) is recorded as 63%; in series [1] (gas flow countercurrent (standard operation), EBRT = 94 s, inlet 3.713 g/m^3), 70%; in series [1] (low inlet concentrations increasing up to 3 g/m^3), “greater than 96%”; in series [1] (superficial liquid velocity 2.0 m/h (standard operation), EBRT = 94 s, inlet 2.927 g/m^3), 89%; in series [1] (superficial liquid velocity 17.7 m/h, EBRT = 94 s, inlet 2.927 g/m^3), 91%. Also, in series [1] (inlet air concentration (3300 ppm)), the “Concentration at which a reduction of the elimination capacity (toxic effect on microorganisms) was observed” value is reported as “greater than 13 g/m^3”. The “Air/corn oil partition coefficient” value in series [2] stood at 0.02.

As to `[Br-].[Na+]` [NaBr, sodium bromide], the “NaBr concentration in the recycle liquid at which inhibition of methyl bromide removal was observed” value in series [1] (recycle liquid (48 g/L)) was at least 0.47 M.

Source of the values: patent publication US7311743B2, “Biofiltration apparatus and method for reducing methyl bromide concentration in a volume of gas” (Energy Resource Institute, Inc., priority 2004, dated 2007).
